Like-named read-outs stand apart in the source and are kept apart here.
Assays:
Type in all cases: cell-based
[1] = tested on: HIV pseudovirus (18A-41); details: 293T cells pretreated 4 h, n=3
[2] = tested on: human pancreatic β-cells; experiment: Insulin secretion from human islet β cells (ELISA of supernatant); details: 6 h
[3] = tested on: Epithelial cells; experiment: Interaction of GFP-labelled complexes with cell membrane of epithelial cells (Example II-52, Table II-30); details: GFP-labelled complex, epithelial cells pretreated 4 hours, n=3
Protocol: The fatty acids were combined with water-soluble small molecules to form a complex, which were labeled with GFP fluorescence to detect cell membrane fluorescence. […] After the cells were stably adhered, the water-soluble fatty acid complexes in the following table were added to the cell culture medium. […] The medium with the drug was pipetted and replaced with normal DMEM medium. […] The green fluorescence intensity was analyzed by imageJ (see Table II-30, n=3).

[4] = tested on: SARS-CoV-2 pseudovirus (B.1.526.2)
[5] = tested on: 293T cells; experiment: Cellular phagocytosis of DiD-loaded lipid vesicles (nano-drugs) by 293T cells (Example II-51, Table II-29); details: 293T cells pretreated 4 h, DiD lipid vesicles 2 h, n=3, untreated control 226.46 ± 1.26
[6] = 100 μM, negative value = promotes infection

CCC=CCC=CCC=CCC=CCC=CCCCC(=O)OCC(O)C1OC(=O)C(O)=C1O (stereo not drawn) [Ascorbic Acid-EPA]
Inhibition rate (%) ([1]; 2 nM): 72.04 ± 6.02%
Inhibition rate (%) ([1]; 5 nM): 68.76 ± 5.79%
Inhibition rate (%) ([1]; 10 nM): 86.46 ± 3.84%
Inhibition rate (%) ([1]; 50 nM): 97.33 ± 5.33%
Inhibition rate (%) ([1]; 100 nM): 98.77 ± 3.22%
Inhibition rate (%) ([1]; 1 μM): -82.83 ± 7.59%
Inhibition rate (%) ([1]; 10 μM): -64.54 ± 5.62%
Inhibition rate (%) ([1]; 50 μM): 80.74 ± 4.76%
Inhibition rate (%) [1, 6]: 82.84 ± 4.75%

CCCCCCCC/C=C\CCCCCCCC(=O)OCCO [Ethylene glycol-OA]
Inhibition rate (%) ([1]; 2 nM): 82.74 ± 5.06%
Inhibition rate (%) ([1]; 5 nM): 83.09 ± 3.25%
Inhibition rate (%) ([1]; 10 nM): 89.89 ± 4.06%
Inhibition rate (%) ([1]; 50 nM): 94.33 ± 6.32%
Inhibition rate (%) ([1]; 100 nM): 93.46 ± 3.23%
Inhibition rate (%) ([1]; 1 μM): -92.33 ± 2.66%
Inhibition rate (%) ([1]; 10 μM): -84.04 ± 6.24%
Inhibition rate (%) ([1]; 50 μM): 79.46 ± 8.46%
Inhibition rate (%) [1, 6]: 86.47 ± 5.86%

NC(CCCCNC(=O)CCCCCCCCCCCCCCCCCCC(=O)O)C(=O)O (stereo not drawn) [Lys-eicosanedioic acid]
Insulin ([2]; 2 nM): 0.34 ng/mL
Insulin ([2]; 5 nM): 0.35 ng/mL
Insulin ([2]; 10 nM): 0.42 ng/mL
Insulin ([2]; 50 nM): 0.48 ng/mL
Insulin ([2]; 50 μM): 1.44 ng/mL
Insulin ([2]; 100 μM): 1.48 ng/mL

CCCCCCCCCC(=O)NCCCCC(N)C(=O)O (stereo not drawn) [Lys-n-decanoic acid]
Insulin ([2]; 2 nM): 0.45 ng/mL
Insulin ([2]; 5 nM): 0.47 ng/mL
Insulin ([2]; 10 nM): 0.56 ng/mL
Insulin ([2]; 50 nM): 0.60 ng/mL
Insulin ([2]; 50 μM): 1.53 ng/mL
Insulin ([2]; 100 μM): 1.63 ng/mL

CCCC(=O)OCC(N)C(=O)O (stereo not drawn) [Ser-n-butyric acid]
Insulin ([2]; 2 nM): 0.41 ng/mL
Insulin ([2]; 5 nM): 0.39 ng/mL
Insulin ([2]; 10 nM): 0.49 ng/mL
Insulin ([2]; 50 nM): 0.53 ng/mL
Insulin ([2]; 50 μM): 1.42 ng/mL
Insulin ([2]; 100 μM): 1.51 ng/mL

CCCCCCCCCCCCCCCCCC(=O)OCC(N)C(=O)O (stereo not drawn) [Ser-stearic acid]
Insulin ([2]; 2 nM): 0.28 ng/mL
Insulin ([2]; 5 nM): 0.30 ng/mL
Insulin ([2]; 10 nM): 0.41 ng/mL
Insulin ([2]; 50 nM): 0.48 ng/mL
Insulin ([2]; 50 μM): 1.38 ng/mL
Insulin ([2]; 100 μM): 1.41 ng/mL

CCCCCCCCCCCCCCCCCCCC(=O)OC(C)C(N)C(=O)O (stereo not drawn) [Thr-arachidic acid]
Mean fluorescence intensity ([3]; 0 Hours after medium replaced): 109.4 ± 3.7
Mean fluorescence intensity ([3]; 2 Hours after medium replaced): 104.4 ± 5.4
Mean fluorescence intensity ([3]; 4 Hours after medium replaced): 91.5 ± 6.7
Mean fluorescence intensity ([3]; 8 Hours after medium replaced): 54.3 ± 7.2
Mean fluorescence intensity ([3]; 12 Hours after medium replaced): 41.4 ± 3.4
Mean fluorescence intensity ([3]; 24 Hours after medium replaced): 34.2 ± 5.2
Insulin ([2]; 2 nM): 0.32 ng/mL
Insulin ([2]; 5 nM): 0.31 ng/mL
Insulin ([2]; 10 nM): 0.43 ng/mL
Insulin ([2]; 50 nM): 0.51 ng/mL
Insulin ([2]; 50 μM): 1.46 ng/mL
Insulin ([2]; 100 μM): 1.42 ng/mL

CCCCCC(=O)OC(C)C(N)C(=O)O (stereo not drawn) [Thr-n-hexanoic acid]
Insulin ([2]; 2 nM): 0.38 ng/mL
Insulin ([2]; 5 nM): 0.37 ng/mL
Insulin ([2]; 10 nM): 0.47 ng/mL
Insulin ([2]; 50 nM): 0.54 ng/mL
Insulin ([2]; 50 μM): 1.41 ng/mL
Insulin ([2]; 100 μM): 1.46 ng/mL

CCCCCC=CCC=CCCCCCCCC(=O)OC(C)C(N)C(=O)O (stereo not drawn) [Threonine-LA]
Inhibition rate (%) ([4]; 2 nM, n=3): 55.64 ± 1.68%
Inhibition rate (%) ([4]; 5 nM, n=3): 71.66 ± 2.98%
Inhibition rate (%) ([4]; 10 nM, n=3): 80.84 ± 4.59%
Inhibition rate (%) ([4]; 50 nM, n=3): 79.83 ± 8.55%
Inhibition rate (%) ([4]; 100 nM, n=3): 75.99 ± 2.66%
Inhibition rate (%) ([4]; 1 μM, n=3): -82.33 ± 0.87%
Inhibition rate (%) ([4]; 10 μM, n=3): -124.16 ± 0.47%
Inhibition rate (%) ([4]; 50 μM, n=3): 71.36 ± 0.48%
Inhibition rate (%) ([4]; 100 μM, n=3): 87.98 ± 0.55%
Fluorescence intensity ([5]; 2 nM): 100.46 ± 4.23
Fluorescence intensity ([5]; 5 nM): 64.18 ± 0.47
Fluorescence intensity ([5]; 10 nM): 43.39 ± 0.55
Fluorescence intensity ([5]; 50 nM): 45.68 ± 0.23
Fluorescence intensity ([5]; 100 nM): 54.37 ± 0.63
Fluorescence intensity ([5]; 1 uM): 412.90 ± 0.43
Fluorescence intensity ([5]; 10 uM): 507.63 ± 0.23
Fluorescence intensity ([5]; 50 uM): 64.86 ± 0.19
Fluorescence intensity ([5]; 100 uM): 27.22 ± 0.16

Adenosine monophosphate-lauroic acid
Insulin ([2]; 2 nM): 0.37 ng/mL
Insulin ([2]; 5 nM): 0.38 ng/mL
Insulin ([2]; 10 nM): 0.43 ng/mL
Insulin ([2]; 50 nM): 0.49 ng/mL
Insulin ([2]; 50 μM): 1.49 ng/mL
Insulin ([2]; 100 μM): 1.53 ng/mL

Glucosamine-n-octanoic acid
Inhibition rate (%) ([1]; 2 nM): 22.59 ± 6.09%
Inhibition rate (%) ([1]; 5 nM): 54.47 ± 2.09%
Inhibition rate (%) ([1]; 10 nM): 78.34 ± 3.66%
Inhibition rate (%) ([1]; 50 nM): 89.33 ± 3.65%
Inhibition rate (%) ([1]; 100 nM): 88.76 ± 4.87%
Inhibition rate (%) ([1]; 1 μM): -62.33 ± 3.93%
Inhibition rate (%) ([1]; 10 μM): -84.26 ± 6.61%
Inhibition rate (%) ([1]; 50 μM): 51.09 ± 9.38%
Inhibition rate (%) [1, 6]: 53.68 ± 6.07%

Glucose-docosanedioic acid
Insulin ([2]; 2 nM): 0.25 ng/mL
Insulin ([2]; 5 nM): 0.27 ng/mL
Insulin ([2]; 10 nM): 0.41 ng/mL
Insulin ([2]; 50 nM): 0.50 ng/mL
Insulin ([2]; 50 μM): 1.41 ng/mL
Insulin ([2]; 100 μM): 1.46 ng/mL

Glucose-hexadecanoic acid
Inhibition rate (%) ([1]; 2 nM): 50.54 ± 1.56%
Inhibition rate (%) ([1]; 5 nM): 57.26 ± 6.09%
Inhibition rate (%) ([1]; 10 nM): 86.44 ± 5.03%
Inhibition rate (%) ([1]; 50 nM): 85.46 ± 3.99%
Inhibition rate (%) ([1]; 100 nM): 89.99 ± 5.07%
Inhibition rate (%) ([1]; 1 μM): -94.23 ± 9.06%
Inhibition rate (%) ([1]; 10 μM): -44.88 ± 1.03%
Inhibition rate (%) ([1]; 50 μM): 87.59 ± 5.03%
Inhibition rate (%) [1, 6]: 98.87 ± 6.03%

Glucose-pentadecanedioic acid
Insulin ([2]; 2 nM): 0.22 ng/mL
Insulin ([2]; 5 nM): 0.23 ng/mL
Insulin ([2]; 10 nM): 0.36 ng/mL
Insulin ([2]; 50 nM): 0.43 ng/mL
Insulin ([2]; 50 μM): 1.48 ng/mL
Insulin ([2]; 100 μM): 1.52 ng/mL

Uridine diphosphate glucose-dodecanoic acid [UDPGA-C12]
Inhibition rate (%) ([4]; 0.002 µM): 56.54 ± 3.94%
Inhibition rate (%) ([4]; 0.005 µM): 79.66 ± 3.69%
Inhibition rate (%) ([4]; 0.01 µM): 91.38 ± 3.36%
Inhibition rate (%) ([4]; 0.05 µM): 81.33 ± 1.25%
Inhibition rate (%) ([4]; 0.1 µM): 87.47 ± 8.23%
Inhibition rate (%) ([4]; 1 µM): -92.93 ± 0.58%
Inhibition rate (%) ([4]; 10 µM): 73.16 ± 0.59%
Inhibition rate (%) ([4]; 50 µM): 67.37 ± 0.54%
Inhibition rate (%) ([4]; 100 µM): 53.98 ± 0.78%

Uridine diphosphate glucose-oleic acid [UDPGA-OA]
Inhibition rate (%) ([4]; 0.002 µM): 44.54 ± 1.23%
Inhibition rate (%) ([4]; 0.005 µM): 50.06 ± 1.05%
Inhibition rate (%) ([4]; 0.01 µM): 54.94 ± 1.84%
Inhibition rate (%) ([4]; 0.05 µM): 67.33 ± 1.00%
Inhibition rate (%) ([4]; 0.1 µM): 84.96 ± 4.55%
Inhibition rate (%) ([4]; 1 µM): -82.33 ± 0.53%
Inhibition rate (%) ([4]; 10 µM): -54.00 ± 0.23%
Inhibition rate (%) ([4]; 50 µM): 73.06 ± 0.26%
Inhibition rate (%) ([4]; 100 µM): 83.61 ± 0.88%

Uridine diphosphate glucose-pentacosanoic acid [UDPGA-C25]
Inhibition rate (%) ([4]; 0.002 µM): 46.04 ± 0.98%
Inhibition rate (%) ([4]; 0.005 µM): 49.66 ± 0.58%
Inhibition rate (%) ([4]; 0.01 µM): 48.66 ± 1.59%
Inhibition rate (%) ([4]; 0.05 µM): 59.03 ± 1.25%
Inhibition rate (%) ([4]; 0.1 µM): 88.64 ± 4.53%
Inhibition rate (%) ([4]; 1 µM): -12.03 ± 0.83%
Inhibition rate (%) ([4]; 10 µM): -64.26 ± 0.59%
Inhibition rate (%) ([4]; 50 µM): 71.36 ± 0.88%
Inhibition rate (%) ([4]; 100 µM): 92.33 ± 0.73%

cholylglycine-Ricinoleic acid [cholylglycine-C18-1-OH]
Inhibition rate (%) ([4]; 2 nM, n=3): 72.59 ± 5.58%
Inhibition rate (%) ([4]; 5 nM, n=3): 74.66 ± 1.25%
Inhibition rate (%) ([4]; 10 nM, n=3): 78.34 ± 2.55%
Inhibition rate (%) ([4]; 50 nM, n=3): 89.33 ± 2.25%
Inhibition rate (%) ([4]; 100 nM, n=3): 88.76 ± 4.58%
Inhibition rate (%) ([4]; 1 μM, n=3): -32.33 ± 0.57%
Inhibition rate (%) ([4]; 10 μM, n=3): -54.26 ± 0.88%
Inhibition rate (%) ([4]; 50 μM, n=3): 71.09 ± 0.58%
Inhibition rate (%) ([4]; 100 μM, n=3): 73.68 ± 0.71%

cholyltaurine-tetradecanoic acid [cholyltaurine-C14]
Inhibition rate (%) ([4]; 2 nM, n=3): 70.54 ± 3.20%
Inhibition rate (%) ([4]; 5 nM, n=3): 79.66 ± 5.66%
Inhibition rate (%) ([4]; 10 nM, n=3): 81.84 ± 4.57%
Inhibition rate (%) ([4]; 50 nM, n=3): 80.88 ± 1.22%
Inhibition rate (%) ([4]; 100 nM, n=3): 79.06 ± 2.22%
Inhibition rate (%) ([4]; 1 μM, n=3): -94.23 ± 5.55%
Inhibition rate (%) ([4]; 10 μM, n=3): 4.26 ± 0.95%
Inhibition rate (%) ([4]; 50 μM, n=3): 67.55 ± 0.25%
Inhibition rate (%) ([4]; 100 μM, n=3): 58.98 ± 0.44%

From patent US20260166162A1, “CARBON CHAIN SUBSTANCE FOR REGULATING TRANSMEMBRANE TRANSPORT AND FLUIDITY OF CELL MEMBRANES, AND PREPARATION AND USE THEREOF” (priority 2022, published 2026)
